Test results published in patent US20240287089A1, “Preparation and Uses of 7-Azaindenoisoquinolines” (Purdue Research Foundation, priority 0001, published 2024).
Like-named read-outs stand apart in the source and are kept apart here.

How the values were obtained:
CA-46 cells = test: MTS single-dosage cell viability assay; type: cell-based; conditions: CA-46, 250 nM
From the text: (§1) Single-Dosage Cell Viability Assay in CA-46 and Raji Cells. CA-46 and Raji are both Myc-dependent and -overexpressing non-Hodgkin's lymphoma cell lines. Both cell lines overexpress Myc due to a translocation that inserts an IgH enhancer upstream to the Myc gene. Whereas CA-46's translocation eliminates the G-quadruplex-forming region in one allele, Raji's translocation preserves the G-quadruplex-forming regions in both alleles. Therefore, Raji would be more sensitive to G-quadruplex-mediated Myc inhibition than CA-46, which may be reflected in lower IC50 values for Raji than CA-46. To evaluate cell line selectivity, MTS single-dosage assays were conducted to compare the antiproliferative effects of 7-aza-8,9-methylenedioxyindenoisoquinolines on CA-46 and Raji cells at 250 nM drug concentration (FIG. 8). Average % viability values of CA-46 and Raji cells for each drug were presented in bar plots side-by-side.
(§2) MTS Cell Viability Single-dosage Assay. Drug solutions for the MTS single dosage assays were made from DMSO stocks by dilutions in 1×PBS. To set up treatments, drug solutions were plated in triplicates to a 96-well tissue culture plate and added with media containing CA46 or Raji 2000 cells/well. […] Cells were quantified the same way as in the IC50 assays. To obtain %-viability, A490 values were subtracted by blank, normalized to 100%-viability control, and averaged. […]

Raji cells = test: MTS single-dosage cell viability assay; type: cell-based; conditions: 250 nM
From the text: as §1, §2

[1] = system: RD-ES human sarcoma tumor cells; test: RD-ES xenograft in female NOD SCID mice; type: in vivo; conditions: 20 mg/kg IV
Protocol: Xenograft Studies. […] JQ1 was employed as a positive control.
Similar studies were performed after inoculation of female NOD SCID mice with RD-ES human sarcoma tumor cells (FIGS. 16-19). The tumors grew much more rapidly and treatment was started on day 8 after tumor inoculation, with measurements of body weights and tumor sizes being made on days 8, 12, 15, 19, and 22 after tumor inoculation. […] The average RD-ES tumor sizes were much larger than observed with MOLT-4 (2327±285 vs. 546±59 mm^3).

[2] = Pharmacokinetics IV and PO in male CD1 mice
[3] = in vivo, iv, 20 mg/kg
Protocol: (§3) Brain Penetration Studies. […] The concentrations were determined by LC-MS/MS with direct measurement of the plasma samples. The brain tissue was homogenized with water using a 3:1 ratio of water (mL) to brain (g) before determination of the concentrations (ng/mL) in the brain homogenates, and the homogenate values then were multiplied by a factor of 4 to obtain the brain concentrations (ng/g).

[4] = male, mouse, microsomes, 1 μM
[5] = Metabolic stability in liver microsomes; conditions: human liver microsomes
[6] = Brain penetration and plasma/brain pharmacokinetics in CD1 mice; conditions: for Brain Conc / Brain/Plasma Conc Ratio / Plasma Conc: 20 mg/kg IV
Protocol: as §3

HCT-116 (Colon) = conditions: Colon HCT-116; reference 20; read-out: Cytotoxicity GI50; cited from earlier work
UACC-62 (Melanoma) = conditions: Melanoma UACC-62; reference 20; read-out: Cytotoxicity GI50; cited from earlier work
[7] = dogs, same time points; cited from earlier work
SF-539 (CNS) = conditions: CNS SF-539; reference 20; read-out: Cytotoxicity GI50; cited from earlier work
NCI-60 cancer cell lines = conditions: NCI-60 panel; reference 20; read-out: MGM (average GI50 across NCI-60 panel); cited from earlier work
DU-145 (Prostate) = conditions: Prostate DU-145; reference 20; read-out: Cytotoxicity GI50; cited from earlier work
HOP-62 (Lung) = conditions: Lung HOP-62; reference 20; read-out: Cytotoxicity GI50; cited from earlier work
[8] = male, CD1, mouse, plasma, iv, 1 mg/kg
[9] = brain, IV 20 mg/kg, male CD1 mice
[10] = plasma, IV 20 mg/kg, male CD1 mice

COc1cc2c3c(n(CCCN4CCOCC4)c(=O)c2cc1OC)-c1nc2c(cc1C3=O)OCO2 [G101, 2,3-Dimethoxy-6-(3-morpholinopropyl)-5H-[1,3]dioxolo[4″,5″:5′,6′]pyrido[3′,2′:4,5]cyclopenta[1,2-c]isoquinoline-5,12(6H)-dione]
growth inhibition (% viability) (CA-46 cells): did not show growth inhibition | growth inhibition (% viability) (Raji cells): did not show growth inhibition

COc1cc2c3c(n(CCCNCCO)c(=O)c2cc1OC)-c1nc2c(cc1C3=O)OCO2 [G105, 6-(3-((2-Hydroxyethyl)amino)propyl)-2,3-dimethoxy-5H-[1,3]dioxolo[4″,5″:5′,6′]pyrido[3′,2′:4,5]cyclopenta[1,2-c]isoquinoline-5,12(6H)-dione]
potency on tumor size [1]: most potent | AUCInf ([2]; IV 1 mg/kg, male CD1 mice): 155 ng·h/mL | AUClast ([2]; IV 1 mg/kg, male CD1 mice): 151 ng·h/mL | AUClast/D ([2]; IV 1 mg/kg, male CD1 mice): 151 ng·h/mL | AUC—% Extrap—obs ([2]; IV 1 mg/kg, male CD1 mice): 2.61% | C0 ([2]; IV 1 mg/kg, male CD1 mice): 177 ng/mL | Cl_obs ([2]; IV 1 mg/kg, male CD1 mice): 107 mL/min/kg | MRTInf—obs ([2]; IV 1 mg/kg, male CD1 mice): 1.49 h | T1/2 ([2]; IV 1 mg/kg, male CD1 mice): 1.84 h | AUCInf ([2]; PO 10 mg/kg, male CD1 mice): 28.8 ng·h/mL | AUClast ([2]; PO 10 mg/kg, male CD1 mice): 18.0 ng·h/mL | AUClast/D ([2]; PO 10 mg/kg, male CD1 mice): 1.80 ng·h/mL | AUC—% Extrap—obs ([2]; PO 10 mg/kg, male CD1 mice): 37.3% | Cmax ([2]; PO 10 mg/kg, male CD1 mice): 3.50 ng/mL | F (fraction of the dose absorbed) ([2]; PO 10 mg/kg, male CD1 mice): 1.19% | MRTInf—obs ([2]; PO 10 mg/kg, male CD1 mice): 7.86 h | T1/2 ([2]; PO 10 mg/kg, male CD1 mice): 5.20 h | Tmax ([2]; PO 10 mg/kg, male CD1 mice): 0.500 h | Vd [2, 8]: 9.62 L/kg | half-life [2, 8]: 1.84 h | half-life ([2]; male, CD1, mouse, plasma, po, 10 mg/kg): 5.2 h | AUCInf ([3]; male, CD1, mouse): 2949 ng·h/mL | AUClast ([3]; male, CD1, mouse): 2847 ng·h/mL | C0 ([3]; male, CD1, mouse): 3904 ng/mL | Cl_obs ([3]; male, CD1, mouse): 113 mL/min/kg | MRTInf—obs ([3]; male, CD1, mouse): 4.12 h | T1/2 ([3]; male, CD1, mouse): 6.18 h | Brain/Plasma Conc Ratio ([3]; male, CD1, mouse, 0.25 h): 0.42 | Brain/Plasma Conc Ratio ([3]; male, CD1, mouse, 0.5 h): 0.44 | Brain/Plasma Conc Ratio ([3]; male, CD1, mouse, 1 h): 0.73 | Brain/Plasma Conc Ratio ([3]; male, CD1, mouse, 2 h): 1.45 | Brain/Plasma Conc Ratio ([3]; male, CD1, mouse, 4 h): 2.71 | Brain/Plasma Conc Ratio ([3]; male, CD1, mouse, 8 h): 10.2 | AUClast ([3]; mouse): 9698 ng·h/g | Scaled-up CLint [4]: 14.10 mL/min/kg | T1/2 [4]: 7.1658 h | in vitro CLint [4]: 3.22 μL/min/mg protein | Scaled-up CLint [5]: 7.67 mL/min/kg | in vitro CLint [5]: 6.12 μL/min/mg protein | T1/2 ([5]; 1 μM): 3.7753 h

COc1cc2c3c(n(CCCNCCO)c(=O)c2cc1OC)-c1cc2c(cc1C3=O)OCO2 [LMP744]
Brain Conc ([6]; 0.25 h): 941 ± 158 nM | Brain/Plasma Conc Ratio ([6]; 0.25 h): 0.65 | Plasma Conc ([6]; 0.25 h): 1434 ± 123 nM | Brain Conc ([6]; 0.5 h): 582 ± 380 nM | Brain/Plasma Conc Ratio ([6]; 0.5 h): 0.34 | Plasma Conc ([6]; 0.5 h): 1712 ± 945 nM | Brain Conc ([6]; 1 h): 802 ± 122 nM | Brain/Plasma Conc Ratio ([6]; 1 h): 0.90 | Plasma Conc ([6]; 1 h): 894 ± 194 nM | Brain Conc ([6]; 2 h): 743 ± 136 nM | Brain/Plasma Conc Ratio ([6]; 2 h): 1.39 | Plasma Conc ([6]; 2 h): 535 ± 103 nM | Brain Conc ([6]; 4 h): 857 ± 162 nM | Brain/Plasma Conc Ratio ([6]; 4 h): 5.44 | Plasma Conc ([6]; 4 h): 154 ± 14 nM | Brain Conc ([6]; 8 h): 759 ± 188 nM | Plasma Conc ([6]; 8 h): 86 ± 31 nM | Brain Conc ([6]; 24 h): 524 ± 166 nM | Brain/Plasma Conc Ratio ([6]; 24 h): 27.1 | Plasma Conc ([6]; 24 h): 23 ± 5 nM | AUClast [6, 9]: 7606 ng·h/g | AUC—% Extrap—obs [6, 9]: 72% | Cmax [6, 9]: 413 ng/g | Tmax [6, 9]: 0.25 h | AUCInf [6, 10]: 2132 ng·h/mL | AUClast [6, 10]: 2022 ng·h/mL | AUC—% Extrap—obs [6, 10]: 5.16% | C0 [6, 10]: 1943 ng/mL | Cl_obs [6, 10]: 156 mL/min/kg | MRTInf—obs [6, 10]: 5.14 h | T1/2 [6, 10]: 7.48 h | Vss—obs [6, 10]: 48.2 L/kg | GI50 (HCT-116 (Colon)): 100 nM | GI50 (UACC-62 (Melanoma)): 30 nM | mean tumor concentration relative to plasma concentration [7]: at least 100 times | GI50 (SF-539 (CNS)): 40 nM | GI50 (NCI-60 cancer cell lines): 110 nM | GI50 (DU-145 (Prostate)): < 10 nM | GI50 (HOP-62 (Lung)): 20 nM
